Results published in patent US8241845B2, “Steroid 5α-reductase” (Health Research Inc., priority 2005, dated 2012).

T1: SRD5AIII (Homo sapiens, UniProt Q9H8P0)
T1 construct: expressed in transfected cells; host or cells: CV-1 (monkey kidney) cells infected with Ad-SRD5AIII; cell-free homogenate
T1 sequence (Q9H8P0 1-318): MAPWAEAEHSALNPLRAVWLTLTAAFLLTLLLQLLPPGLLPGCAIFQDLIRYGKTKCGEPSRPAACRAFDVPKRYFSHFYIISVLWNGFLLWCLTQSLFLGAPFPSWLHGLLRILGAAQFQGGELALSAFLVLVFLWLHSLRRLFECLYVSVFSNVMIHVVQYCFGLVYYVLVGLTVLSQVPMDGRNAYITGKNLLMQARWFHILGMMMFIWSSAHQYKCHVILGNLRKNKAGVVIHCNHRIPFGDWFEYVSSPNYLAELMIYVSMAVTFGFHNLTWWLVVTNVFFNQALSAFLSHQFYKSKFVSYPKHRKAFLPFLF


Assays:
prostate cancer (CaP) [1] = assay: Treatment of men with prostate cancer (CaP) with SRD5A inhibitors; format: in vivo, human; conditions: patients at Roswell Park Cancer Institute
SRD5A = conditions: cited from earlier work
prostate cancer (CaP) [2] = conditions: Thompson et al. 2003; cited from earlier work
SRD5AIII = target: T1, SRD5AIII; assay: Recombinant SRD5AIII in vitro assay (conversion of T to DHT, TLC); format: biochemical
Description: Recombinant SRD5AIII in vitro assays. Ad-SRD5AIII infected CV-1 cells and uninfected CV-1 control cells were prepared and assayed for SRD5AIII using methods of Titus et al. (Titus et al. Clin Cancer Res 2005; 11:4365-4371) and Pratis et al. (Pratis et al. J Steroid Biochem Mol Biol 2000; 75:75-82). All steps prior to incubation were carried out at 4° C. SRD5AIII specific activity was expressed in pmol/mg protein/hr using Ad-SRD5AIII infected CV-1 cells.
Ad-SRD5AIII infected CV-1 cells or uninfected CV-1 cells were homogenized in 0.5 ml ice-cold homogenization buffer (50 mM potassium phosphate [pH 7.4], 0.25M sucrose, 1 mM EDTA, 1 mM dithiothreitol, 1 mM fresh phenylmethylsulfonyl chloride, 1× Complete™ protease inhibitor [Roche, Indianapolis, Ind.] using a PowerGen 125 (Fischer Scientific) for two 10-second bursts and sonicated (Branson Sonifier CD200, SmilthKine) at 20% power for 15 one-second bursts. Final homogenates were centrifuged at 500×g for 1 min to remove particulate. The resulting cell free supernatants were placed on ice and used immediately. Protein concentrations were measured using the procedure of Lowry et al. (Lowry et al. J Biol Chem 1951; 193:265-75).
The buffer for all incubations contained 100 mM Tris-citrate, 0.5 mM dithiothreitol, 0.5 mM NADPH and 1 μCi ^3H-testosterone (New England Nuclear, Boston, Mass.). […] Incubations were performed in total volume 250 μl at pH 7.0 and pH 5.0. […]
The conversion of T to dihydrotestosterone (DHT), androstanedione and androsterone was analyzed using thin layer chromatography (TLC, 33). […] Control incubations were analyzed as described above.
The amount of radioactive DHT, androstanedione and androsterone was calculated as percent total radioactivity (^3H) recovered from the thin layer chromatography lane. […]
Anti-6X-His and anti-X-press antibodies were used to evaluate the expression level of 6X-His and X-press-tagged SRD5AIII in infected CV1 cells. […] However, the molecular weight of the detected band was higher than the expected SRD5AIII molecular weight of about 37 kDa. […]

pH optimum (SRD5AIII) | Molecule | Response in patients, early results (prostate cancer (CaP) [1]) | Inhibition of SRD5A activity (SRD5A) | Efficacy as treatment for CaP (prostate cancer (CaP) [2]) | SRD5AIII enzyme activity (SRD5AIII; pH 5.0, 1 μM T substrate, n=1) | SRD5AIII specific activity after subtracting background activity (SRD5AIII; pH 7.0, 5 μM T substrate, n=3, Ad-SRD5AIII infected CV-1 cell homogenate) [pmol/mg protein/hour]
– | C[C@]12C=CC(=O)N[C@@H]1CC[C@@H]1[C@@H]2CC[C@]2(C)[C@@H](C(=O)Nc3cc(C(F)(F)F)ccc3C(F)(F)F)CC[C@@H]12 [dutasteride, Dutasteride] | incomplete remission | neither finasteride nor dutasteride inhibits SRD5A activity completely | – | – | –
– | CC(C)(C)NC(=O)[C@H]1CC[C@H]2[C@@H]3CC[C@H]4NC(=O)C=C[C@]4(C)[C@H]3CC[C@]12C [finasteride] | – | neither finasteride nor dutasteride inhibits SRD5A activity completely | Lack of efficacy | – | –
~7.0 | SRD5AIII: novel steroid 5α-reductase isozyme, 318 amino acids, SEQ ID NO:2 (protein, human) MAPWAEAEHSALNPLRAVWLTLTAAFLLTLLLQLLPPGLLPGCAIFQDLIRYGKTKCGEPSRPAACRAFDVPKRYFSHFYIISVLWNGFLLWCLTQSLFLGAPFPSWLHGLLRILGAAQFQGGELALSAFLVLVFLWLHSLRRLFECLYVSVFSNVMIHVVQYCFGLVYYVLVGLTVLSQVPMDGRNAYITGKNLLMQARWFHILGMMMFIWSSAHQYKCHVILGNLRKNKAGVVIHCNHRIPFGDWFEYVSSPNYLAELMIYVSMAVTFGFHNLTWWLVVTNVFFNQALSAFLSHQFYKSKFVSYPKHRKAFLPFLF | – | – | – | not detected | 15.6
